From the kinase profiling compilation of Christmann-Franck et al. (2016)

Columns and labels:
Assay in all cases: KINOMEscan competition binding
Details in all cases: compound 10.0 µM
MERTK (human) = MERTK (human) (UniProt Q12866)
ULK3 (human) = ULK3 (human) (UniProt Q6PHR2)
SRC (human) = SRC (human) (UniProt P12931)
KIT (human) = KIT (human) (UniProt P10721)
CaMK1 (human) = CaMK1 (human) (UniProt Q14012)
EIF2AK2 (human) = EIF2AK2 (human) (UniProt P19525)
ROCK1 (human) = ROCK1 (human) (UniProt Q13464)
CRK2 (P.falciparum) = CRK2 (P.falciparum) (UniProt P61075)
CSNK2A2 (human) = CSNK2A2 (human) (UniProt P19784)
PRKCI (human) = PRKCI (human) (UniProt P41743)
MAP3K10 (human) = MAP3K10 (human) (UniProt Q02779)
PLK2 (human) = PLK2 (human) (UniProt Q9NYY3)
MAP2K1 (human) = MAP2K1 (human) (UniProt Q02750)
STK17A (human) = STK17A (human) (UniProt Q9UEE5)
MAP3K15 (human) = MAP3K15 (human) (UniProt Q6ZN16)
PAK1 (human) = PAK1 (human) (UniProt Q13153)
SYK (human) = SYK (human) (UniProt P43405)
PIK3CG (human) = PIK3CG (human) (UniProt P48736)
ANKK1 (human) = ANKK1 (human) (UniProt Q8NFD2)
RPS6KA4 KD2 (human) = RPS6KA4 KD2 (human) (UniProt O75676)
MATK (human) = MATK (human) (UniProt P42679)
STK17B (human) = STK17B (human) (UniProt O94768)
YES1 (human) = YES1 (human) (UniProt P07947)
MAP2K7 (human) = MAP2K7 (human) (UniProt O14733)
GRK1 (human) = GRK1 (human) (UniProt Q15835)
MAPKAPK2 (human) = MAPKAPK2 (human) (UniProt P49137)
FGFR4 (human) = FGFR4 (human) (UniProt P22455)
IRAK1 (human) = IRAK1 (human) (UniProt P51617)
SIK1 (human) = SIK1 (human) (UniProt P57059)
STK24 (human) = STK24 (human) (UniProt Q9Y6E0)
CHEK2 (human) = CHEK2 (human) (UniProt O96017)
MYLK2 (human) = MYLK2 (human) (UniProt Q9H1R3)
AURKA (human) = AURKA (human) (UniProt O14965)
[1] = tested on: ABL1 (human), P00519 [Y253F]
RPS6KA1 KD2 (human) = RPS6KA1 KD2 (human) (UniProt Q15418)
PIP5K1C (human) = PIP5K1C (human) (UniProt O60331)
GAK (human) = GAK (human) (UniProt O14976)
MAP4K3 (human) = MAP4K3 (human) (UniProt Q8IVH8)
CSF1R (human) = CSF1R (human) (UniProt P07333)
GSK3B (human) = GSK3B (human) (UniProt P49841)

ROCK1 (human), sequence (Q13464 whole entry, looked up): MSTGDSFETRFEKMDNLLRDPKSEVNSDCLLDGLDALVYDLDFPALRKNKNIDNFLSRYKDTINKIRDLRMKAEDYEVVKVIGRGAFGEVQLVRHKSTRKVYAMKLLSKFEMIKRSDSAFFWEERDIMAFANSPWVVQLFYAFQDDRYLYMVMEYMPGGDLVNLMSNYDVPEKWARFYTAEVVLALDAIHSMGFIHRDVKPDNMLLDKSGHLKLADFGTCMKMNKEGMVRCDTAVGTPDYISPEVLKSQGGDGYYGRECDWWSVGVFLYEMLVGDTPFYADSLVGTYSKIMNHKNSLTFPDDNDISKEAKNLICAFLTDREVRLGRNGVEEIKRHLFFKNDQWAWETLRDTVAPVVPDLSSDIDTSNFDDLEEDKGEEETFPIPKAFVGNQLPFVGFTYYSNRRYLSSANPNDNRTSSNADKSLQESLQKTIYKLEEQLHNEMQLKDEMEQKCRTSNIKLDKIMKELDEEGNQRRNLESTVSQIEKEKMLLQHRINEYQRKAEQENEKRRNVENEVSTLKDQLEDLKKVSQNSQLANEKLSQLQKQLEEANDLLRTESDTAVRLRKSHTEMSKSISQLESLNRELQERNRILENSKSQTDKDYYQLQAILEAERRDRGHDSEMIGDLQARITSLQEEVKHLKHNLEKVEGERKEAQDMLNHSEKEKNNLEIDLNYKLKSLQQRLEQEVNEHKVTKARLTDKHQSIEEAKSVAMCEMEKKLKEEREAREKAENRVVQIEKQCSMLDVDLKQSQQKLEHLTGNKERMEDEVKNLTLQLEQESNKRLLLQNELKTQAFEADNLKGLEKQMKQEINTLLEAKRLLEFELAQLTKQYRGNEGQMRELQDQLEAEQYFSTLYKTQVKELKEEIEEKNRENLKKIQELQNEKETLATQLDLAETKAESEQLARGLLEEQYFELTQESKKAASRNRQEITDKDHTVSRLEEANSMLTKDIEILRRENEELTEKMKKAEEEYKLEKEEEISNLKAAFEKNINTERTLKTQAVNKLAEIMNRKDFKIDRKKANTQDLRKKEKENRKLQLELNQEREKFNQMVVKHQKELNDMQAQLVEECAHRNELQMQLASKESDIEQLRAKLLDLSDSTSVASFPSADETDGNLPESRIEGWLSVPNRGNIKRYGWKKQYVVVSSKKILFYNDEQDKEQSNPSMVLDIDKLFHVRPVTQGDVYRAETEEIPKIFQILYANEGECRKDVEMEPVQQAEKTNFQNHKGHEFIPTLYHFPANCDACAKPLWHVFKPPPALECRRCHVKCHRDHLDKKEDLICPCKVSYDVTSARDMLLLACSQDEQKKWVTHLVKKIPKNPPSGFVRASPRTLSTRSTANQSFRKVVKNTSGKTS
PLK2 (human), sequence (Q9NYY3 whole entry, looked up): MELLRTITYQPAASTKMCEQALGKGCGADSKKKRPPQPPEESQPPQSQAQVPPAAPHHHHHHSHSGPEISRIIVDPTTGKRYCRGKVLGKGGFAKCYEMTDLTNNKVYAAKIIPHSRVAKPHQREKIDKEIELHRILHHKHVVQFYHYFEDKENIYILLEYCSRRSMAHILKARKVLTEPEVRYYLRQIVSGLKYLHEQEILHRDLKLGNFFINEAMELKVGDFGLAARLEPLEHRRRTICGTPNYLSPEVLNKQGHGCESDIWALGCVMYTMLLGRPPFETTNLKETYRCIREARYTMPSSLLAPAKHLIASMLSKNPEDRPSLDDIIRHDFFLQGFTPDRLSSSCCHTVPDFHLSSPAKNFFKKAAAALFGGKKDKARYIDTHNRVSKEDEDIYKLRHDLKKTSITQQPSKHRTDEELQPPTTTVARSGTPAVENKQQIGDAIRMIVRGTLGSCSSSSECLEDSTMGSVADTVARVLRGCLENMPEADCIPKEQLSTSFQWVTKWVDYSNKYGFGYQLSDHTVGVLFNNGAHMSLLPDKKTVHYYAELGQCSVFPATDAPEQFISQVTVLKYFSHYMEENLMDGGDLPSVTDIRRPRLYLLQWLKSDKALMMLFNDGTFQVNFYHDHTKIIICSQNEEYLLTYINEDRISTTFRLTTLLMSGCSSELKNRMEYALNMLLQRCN
SIK1 (human), sequence (P57059 whole entry, looked up): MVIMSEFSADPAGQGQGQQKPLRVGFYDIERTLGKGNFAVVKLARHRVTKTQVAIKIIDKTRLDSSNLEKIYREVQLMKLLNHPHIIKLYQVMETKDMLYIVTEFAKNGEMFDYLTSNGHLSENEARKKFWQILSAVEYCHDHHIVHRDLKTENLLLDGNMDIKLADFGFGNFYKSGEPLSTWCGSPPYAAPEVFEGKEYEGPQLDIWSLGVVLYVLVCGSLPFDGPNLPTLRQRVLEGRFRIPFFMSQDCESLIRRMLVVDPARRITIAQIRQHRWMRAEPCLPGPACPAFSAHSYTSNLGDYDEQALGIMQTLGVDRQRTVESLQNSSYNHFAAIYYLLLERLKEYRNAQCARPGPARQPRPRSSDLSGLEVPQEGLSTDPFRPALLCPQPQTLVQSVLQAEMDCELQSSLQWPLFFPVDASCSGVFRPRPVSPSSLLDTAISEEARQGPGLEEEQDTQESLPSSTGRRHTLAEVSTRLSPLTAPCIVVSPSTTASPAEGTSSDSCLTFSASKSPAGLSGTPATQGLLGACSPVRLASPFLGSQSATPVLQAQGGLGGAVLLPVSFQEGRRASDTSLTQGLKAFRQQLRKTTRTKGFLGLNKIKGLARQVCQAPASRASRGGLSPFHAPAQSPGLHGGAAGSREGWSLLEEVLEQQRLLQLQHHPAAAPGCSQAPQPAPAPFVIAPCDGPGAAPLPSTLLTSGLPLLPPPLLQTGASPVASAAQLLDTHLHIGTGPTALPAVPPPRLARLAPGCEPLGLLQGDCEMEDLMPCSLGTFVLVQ
MAP4K3 (human), sequence (Q8IVH8 whole entry, looked up): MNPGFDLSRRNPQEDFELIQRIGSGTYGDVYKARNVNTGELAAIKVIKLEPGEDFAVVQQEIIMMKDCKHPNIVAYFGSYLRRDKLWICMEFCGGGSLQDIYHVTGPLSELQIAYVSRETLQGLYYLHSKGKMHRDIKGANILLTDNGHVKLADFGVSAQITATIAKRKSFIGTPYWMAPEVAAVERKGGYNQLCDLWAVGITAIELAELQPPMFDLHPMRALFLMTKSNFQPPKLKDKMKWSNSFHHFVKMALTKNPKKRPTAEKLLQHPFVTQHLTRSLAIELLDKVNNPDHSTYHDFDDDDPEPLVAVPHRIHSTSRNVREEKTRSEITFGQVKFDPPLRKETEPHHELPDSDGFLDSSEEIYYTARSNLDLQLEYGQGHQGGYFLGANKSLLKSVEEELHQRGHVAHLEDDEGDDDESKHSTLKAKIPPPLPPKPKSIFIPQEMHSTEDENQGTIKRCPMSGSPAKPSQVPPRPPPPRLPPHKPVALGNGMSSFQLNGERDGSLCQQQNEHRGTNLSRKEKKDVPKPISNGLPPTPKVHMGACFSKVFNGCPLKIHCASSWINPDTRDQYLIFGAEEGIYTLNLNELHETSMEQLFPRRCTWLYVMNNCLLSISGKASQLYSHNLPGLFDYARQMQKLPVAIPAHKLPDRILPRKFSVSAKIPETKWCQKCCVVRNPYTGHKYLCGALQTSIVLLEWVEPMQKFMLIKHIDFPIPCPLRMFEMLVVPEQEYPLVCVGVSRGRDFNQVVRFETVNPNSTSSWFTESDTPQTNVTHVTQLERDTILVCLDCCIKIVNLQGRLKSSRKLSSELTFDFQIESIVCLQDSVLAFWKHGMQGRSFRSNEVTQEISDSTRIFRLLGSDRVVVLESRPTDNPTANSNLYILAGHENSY
CRK2 (P.falciparum), sequence (P61075 whole entry, looked up): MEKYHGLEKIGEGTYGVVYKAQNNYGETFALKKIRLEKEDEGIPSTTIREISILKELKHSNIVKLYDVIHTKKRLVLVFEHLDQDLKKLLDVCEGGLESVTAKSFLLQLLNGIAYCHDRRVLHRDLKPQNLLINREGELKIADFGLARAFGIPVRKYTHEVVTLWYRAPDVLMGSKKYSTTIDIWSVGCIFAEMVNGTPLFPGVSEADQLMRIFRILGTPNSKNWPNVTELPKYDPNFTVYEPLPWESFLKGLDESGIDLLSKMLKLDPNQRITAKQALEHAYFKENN
FGFR4 (human), sequence (P22455 whole entry, looked up): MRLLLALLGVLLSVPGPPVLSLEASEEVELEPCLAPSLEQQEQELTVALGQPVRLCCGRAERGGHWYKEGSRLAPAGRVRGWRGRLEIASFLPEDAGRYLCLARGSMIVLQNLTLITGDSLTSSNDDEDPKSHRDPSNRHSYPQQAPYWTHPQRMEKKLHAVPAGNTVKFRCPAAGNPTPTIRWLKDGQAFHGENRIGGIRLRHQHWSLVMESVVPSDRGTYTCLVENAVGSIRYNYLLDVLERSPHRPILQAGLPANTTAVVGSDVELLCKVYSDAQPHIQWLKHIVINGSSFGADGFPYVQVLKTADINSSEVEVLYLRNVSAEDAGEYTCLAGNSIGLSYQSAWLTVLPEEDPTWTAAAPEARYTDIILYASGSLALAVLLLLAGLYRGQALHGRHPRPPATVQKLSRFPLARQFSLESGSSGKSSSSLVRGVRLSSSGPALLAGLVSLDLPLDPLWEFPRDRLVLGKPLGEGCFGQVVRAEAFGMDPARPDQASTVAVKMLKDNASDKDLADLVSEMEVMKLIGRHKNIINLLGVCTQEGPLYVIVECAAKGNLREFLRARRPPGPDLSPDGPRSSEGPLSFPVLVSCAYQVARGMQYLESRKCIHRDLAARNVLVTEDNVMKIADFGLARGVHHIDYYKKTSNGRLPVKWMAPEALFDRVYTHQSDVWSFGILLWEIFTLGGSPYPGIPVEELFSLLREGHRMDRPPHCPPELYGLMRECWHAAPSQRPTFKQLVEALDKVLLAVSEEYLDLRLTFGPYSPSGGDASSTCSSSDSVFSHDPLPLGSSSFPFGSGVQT

N#CCNC(=O)c1ccc(-c2ccnc(Nc3ccc(N4CCOCC4)cc3)n2)cc1
kinase still bound, per cent of control (MERTK (human)): 100%
kinase still bound, per cent of control (ULK3 (human)): 0.25%
kinase still bound, per cent of control (SRC (human)): 100%
kinase still bound, per cent of control (KIT (human)): 100%
kinase still bound, per cent of control (CaMK1 (human)): 59%
kinase still bound, per cent of control (EIF2AK2 (human)): 47%
kinase still bound, per cent of control (ROCK1 (human)): 2.9%
kinase still bound, per cent of control (CRK2 (P.falciparum)): 100%
kinase still bound, per cent of control (CSNK2A2 (human)): 6.2%
kinase still bound, per cent of control (PRKCI (human)): 75%
kinase still bound, per cent of control (MAP3K10 (human)): 62%
kinase still bound, per cent of control (PLK2 (human)): 51%
kinase still bound, per cent of control (MAP2K1 (human)): 100%
kinase still bound, per cent of control (STK17A (human)): 0.2%
kinase still bound, per cent of control (MAP3K15 (human)): 68%
kinase still bound, per cent of control (PAK1 (human)): 100%
kinase still bound, per cent of control (SYK (human)): 32%
kinase still bound, per cent of control (PIK3CG (human)): 2.4%
kinase still bound, per cent of control (ANKK1 (human)): 100%
kinase still bound, per cent of control (RPS6KA4 KD2 (human)): 100%
kinase still bound, per cent of control (MATK (human)): 85%
kinase still bound, per cent of control (STK17B (human)): 2.6%
kinase still bound, per cent of control (YES1 (human)): 91%
kinase still bound, per cent of control (MAP2K7 (human)): 100%
kinase still bound, per cent of control (GRK1 (human)): 100%
kinase still bound, per cent of control (MAPKAPK2 (human)): 100%
kinase still bound, per cent of control (FGFR4 (human)): 91%
kinase still bound, per cent of control (IRAK1 (human)): 1.3%
kinase still bound, per cent of control (SIK1 (human)): 62%
kinase still bound, per cent of control (STK24 (human)): 64%
kinase still bound, per cent of control (CHEK2 (human)): 100%
kinase still bound, per cent of control (MYLK2 (human)): 23%
kinase still bound, per cent of control (AURKA (human)): 12%
kinase still bound, per cent of control [1]: 61%
kinase still bound, per cent of control (RPS6KA1 KD2 (human)): 80%
kinase still bound, per cent of control (PIP5K1C (human)): 54%
kinase still bound, per cent of control (GAK (human)): 3.4%
kinase still bound, per cent of control (MAP4K3 (human)): 57%

COCC(=O)NC/C=C/c1ccc2ncnc(Nc3ccc(Oc4ccc(C)nc4)c(C)c3)c2c1
kinase still bound, per cent of control (MERTK (human)): 97%
kinase still bound, per cent of control (ULK3 (human)): 68%
kinase still bound, per cent of control (SRC (human)): 97%
kinase still bound, per cent of control (CaMK1 (human)): 72%
kinase still bound, per cent of control (EIF2AK2 (human)): 99%
kinase still bound, per cent of control (ROCK1 (human)): 100%
kinase still bound, per cent of control (CRK2 (P.falciparum)): 100%
kinase still bound, per cent of control (CSNK2A2 (human)): 100%
kinase still bound, per cent of control (PRKCI (human)): 93%
kinase still bound, per cent of control (MAP3K10 (human)): 100%
kinase still bound, per cent of control (PLK2 (human)): 100%
kinase still bound, per cent of control (MAP2K1 (human)): 9.4%
kinase still bound, per cent of control (CSF1R (human)): 100%
kinase still bound, per cent of control (STK17A (human)): 84%
kinase still bound, per cent of control (MAP3K15 (human)): 100%
kinase still bound, per cent of control (PAK1 (human)): 81%
kinase still bound, per cent of control (SYK (human)): 100%
kinase still bound, per cent of control (GSK3B (human)): 68%
kinase still bound, per cent of control (PIK3CG (human)): 100%
kinase still bound, per cent of control (ANKK1 (human)): 60%
kinase still bound, per cent of control (RPS6KA4 KD2 (human)): 100%
kinase still bound, per cent of control (MATK (human)): 100%
kinase still bound, per cent of control (STK17B (human)): 100%
kinase still bound, per cent of control (YES1 (human)): 65%
kinase still bound, per cent of control (MAP2K7 (human)): 100%
kinase still bound, per cent of control (GRK1 (human)): 100%
kinase still bound, per cent of control (MAPKAPK2 (human)): 100%
kinase still bound, per cent of control (FGFR4 (human)): 100%
kinase still bound, per cent of control (IRAK1 (human)): 100%
kinase still bound, per cent of control (SIK1 (human)): 100%
kinase still bound, per cent of control (STK24 (human)): 90%
kinase still bound, per cent of control (CHEK2 (human)): 55%
kinase still bound, per cent of control (MYLK2 (human)): 100%
kinase still bound, per cent of control (AURKA (human)): 100%
kinase still bound, per cent of control (RPS6KA1 KD2 (human)): 73%
kinase still bound, per cent of control (PIP5K1C (human)): 93%
kinase still bound, per cent of control (GAK (human)): 84%
kinase still bound, per cent of control (MAP4K3 (human)): 80%

COc1cc2ncn(-c3cc(OCc4ccccc4C(F)(F)F)c(C(N)=O)s3)c2cc1OC
kinase still bound, per cent of control (MERTK (human)): 7%
kinase still bound, per cent of control (ULK3 (human)): 77%
kinase still bound, per cent of control (SRC (human)): 64%
kinase still bound, per cent of control (KIT (human)): 30%
kinase still bound, per cent of control (CaMK1 (human)): 100%
kinase still bound, per cent of control (EIF2AK2 (human)): 78%
kinase still bound, per cent of control (ROCK1 (human)): 4.7%
kinase still bound, per cent of control (CRK2 (P.falciparum)): 93%
kinase still bound, per cent of control (CSNK2A2 (human)): 17%
kinase still bound, per cent of control (PRKCI (human)): 72%
kinase still bound, per cent of control (MAP3K10 (human)): 98%
kinase still bound, per cent of control (PLK2 (human)): 0.2%
kinase still bound, per cent of control (MAP2K1 (human)): 67%
kinase still bound, per cent of control (STK17A (human)): 100%
kinase still bound, per cent of control (MAP3K15 (human)): 63%
kinase still bound, per cent of control (PAK1 (human)): 100%
kinase still bound, per cent of control (SYK (human)): 72%
kinase still bound, per cent of control (GSK3B (human)): 100%
kinase still bound, per cent of control (PIK3CG (human)): 18%
kinase still bound, per cent of control (ANKK1 (human)): 80%
kinase still bound, per cent of control (RPS6KA4 KD2 (human)): 70%
kinase still bound, per cent of control (MATK (human)): 85%
kinase still bound, per cent of control (STK17B (human)): 85%
kinase still bound, per cent of control (YES1 (human)): 97%
kinase still bound, per cent of control (MAP2K7 (human)): 87%
kinase still bound, per cent of control (GRK1 (human)): 96%
kinase still bound, per cent of control (MAPKAPK2 (human)): 100%
kinase still bound, per cent of control (FGFR4 (human)): 77%
kinase still bound, per cent of control (IRAK1 (human)): 54%
kinase still bound, per cent of control (SIK1 (human)): 40%
kinase still bound, per cent of control (STK24 (human)): 87%
kinase still bound, per cent of control (CHEK2 (human)): 100%
kinase still bound, per cent of control (MYLK2 (human)): 59%
kinase still bound, per cent of control (AURKA (human)): 100%
kinase still bound, per cent of control [1]: 88%
kinase still bound, per cent of control (RPS6KA1 KD2 (human)): 63%
kinase still bound, per cent of control (PIP5K1C (human)): 10%
kinase still bound, per cent of control (GAK (human)): 4.1%
kinase still bound, per cent of control (MAP4K3 (human)): 32%
